These results are taken from patent publication US11470848B2, “Consortium of (carbamate) thiodicarb-resistant and (pyrethroid) biphenthrin-resistant bacteria and use thereof in liquid fertilizers” (priority 2018, dated 2022).

Common to all, as to format: cell-based
Data set [1] has as its system Bacillus megaterium. Put plainly: Stagewise adaptation on growth media with thiodicarb / bifenthrin, mortality. The conditions noted are these: for Resistant to: (FINAL): after the selective process, 40 stages. As for the experimental part: (§1) Bacteria strains, nitrifiers, phosphorus solubilizers and antagonists for pathogens: • a) Azotobacter vinelandii • b) Bacillus megaterium • c) Bacillus subtillis • d) Bacillus thuringiensis • e) Clostridium pasteuranium • f) Rhizobium Preparation for Stage Development • 1. Glass material is sterilized in an autoclave. • 2. The required amount of growth media is prepared, DFA Agar, Malt Agar (Corn Agar) and (PDA) to obtain viable colonies. • 3. Lethal dose (LD) applied to a hectare is established, for thiodicarb as well as bifenthrin. 10 Petri dishes are prepared with 0.1 LD of thiodicarb of bifenthrin. Dishes are incubated at 25° C. for 72 hours with cold light.
Methodology • a. Petri dishes are placed inside the laminar flow chamber along with the diluted samples, to seed microorganisms in the dishes, a one ml sample of the strain is taken with an automated pipette, 10^−1 and 10^−2 solutions are performed and each solution is homogenized. • b. Having the petri dishes with the sterile and cold growth media, it is homogenized with 6 right to left movements, 6 clockwise movements, 6 counterclockwise movements and 6 front to back movements over a flat horizontal surface until the inoculum is completely integrated into the media, stand until it solidifies and each dish is covered with parafilm to avoid contamination during incubation. • c. Dishes with thiodicarb and Bifenthrin are placed inside the incubator at 25° C. for 72 hours with a cold light lamp. • d. Inoculated dishes are incubated for 72 hours and the bacteria growth will be recorded, the product concentration impact is determined over the plate growth (12 hours of incubation). • e. The residual impact of the product is reviewed after 7 days in the malt agar and PDA agar medias. • f. […] The colony diameter is determined using a graduated ruler, data is recorded subtracting the diameter of the seeded dish, from which the effect over the mycelial growth will be determined compared to the control (not poisoned MA, denominated as percentage of inhibition of radial growth (PIRG %). • h. Progress is recorded daily and after 7 days analysis of an acceptable coverage is performed, if not, the procedure is repeated as many times as required. • i. From the 10 Petri dishes for each microorganism, the one with the lowest mortality is the one that will continue with the following study. • j. […]
(§2) Characteristics for this procedure were recorded during all stages through the following indicators: • a. […] Percentage of inhibition measured in Number of CFU/mm • c. […]
(§3) For each species, stages analyzing times required to cover the entire field were performed. Once this time was determined, they were left to rest for 10 days to be later subject to the following protocol: […]

Data set [2] relates to Rhizobium sp. Described as above. The settings on record: for Resistant to: (FINAL): after the adaptation process, 40 stages. As for the experimental part:
as §1
(§4) Methodology • a. Petri dishes are placed inside the laminar flow chamber along with the diluted samples, to seed microorganisms in the dishes, a one ml sample of the strain is taken with an automated pipette, 10^−1 and 10^−2 solutions are performed and each solution is homogenized. • b. […] Inoculated dishes are incubated for 72 hours and the bacteria growth will be recorded, the product concentration impact is determined over the plate growth (12 hours of incubation). • e. […] The colony diameter is determined using a graduated ruler, data is recorded subtracting the diameter of the seeded dish, from which the effect over the mycelial growth will be determined compared to the control (not poisoned MA, denominated as percentage of inhibition of radial growth (PIRG %). • h. Progress is recorded daily and after 7 days analysis of an acceptable coverage is performed, if not, the procedure is repeated as many times as required. • i. From the 10 Petri dishes for each microorganism, the one with the lowest mortality is the one that will continue with the following study. • j. […]
as §2

The test system of data set [3] is Bacillus subtillis. The data set is described as above. The conditions noted are these: for Resistant to: (FINAL): after the adaptation process, 40 stages. As for the experimental part:
as §1
(§5) Methodology • a. Petri dishes are placed inside the laminar flow chamber along with the diluted samples, to seed microorganisms in the dishes, a one ml sample of the strain is taken with an automated pipette, 10^−1 and 10^−2 solutions are performed and each solution is homogenized. • b. Having the petri dishes with the sterile and cold growth media, it is homogenized with 6 right to left movements, 6 clockwise movements, 6 counterclockwise movements and 6 front to back movements over a flat horizontal surface until the inoculum is completely integrated into the media, stand until it solidifies and each dish is covered with parafilm to avoid contamination during incubation. • c. Dishes with thiodicarb and Bifenthrin are placed inside the incubator at 25° C. for 72 hours with a cold light lamp. • d. Inoculated dishes are incubated for 72 hours and the bacteria growth will be recorded, the product concentration impact is determined over the plate growth (12 hours of incubation). • e. The residual impact of the product is reviewed after 7 days in the malt agar and PDA agar medias. • f. If there is no growth over 10%, the process is repeated until a mortality under 90% is obtained. • g. The colony diameter is determined using a graduated ruler, data is recorded subtracting the diameter of the seeded dish, from which the effect over the mycelial growth will be determined compared to the control (not poisoned MA, denominated as percentage of inhibition of radial growth (PIRG %). • h. Progress is recorded daily and after 7 days analysis of an acceptable coverage is performed, if not, the procedure is repeated as many times as required. • i. From the 10 Petri dishes for each microorganism, the one with the lowest mortality is the one that will continue with the following study. • j. The study is performed again using this percentage until coverage increases and so on, the addition of thiodicarb and bifenthrin is alternated with the LD in intervals of 0.1 LD; all these experiments have been designed with the experimental strains and a control. • k. With the data obtained from the bacterial growth, the percentage of inhibition of gradual growth is obtained, the data is transformed for its analysis with the expression 2 arc sin. A two-way classification analysis of variance is applied and later the Turkey test is performed using a 5% probability.
(§6) Characteristics for this procedure were recorded during all stages through the following indicators: • a. Growth speed • b. Percentage of inhibition measured in Number of CFU/mm • c. Percentage of poison resistance
as §3

Data set [4] relates to Clostridium pasteuranium. The description is as above. The settings on record: for Resistant to: (FINAL): after the selective process, 40 stages. The method, then:
as §1, §5, §6, §3

Data set [5] concerns Bacillus thuringiensis. Described as above. The conditions noted are these: for Resistant to: (FINAL): after the adaptation process, 48 stages. The method, then: as §1, §5, §6, §3
Data set [6] concerns Azotobacter vinelandii. As for the experimental part:
as §1, §4, §2

The mark [7] stands for this setting: bifenthrin 0.9 LD (0.00000042 gr), stages E-37 and E-38.
The mark [8] stands for this setting: thiodicarb 0.2 LD (0.000035 gr), stages E-3 and E-4.
Setting [9] is: thiodicarb 0.1 LD (0.0000175 gr), stage E-2.
The mark [10] stands for this setting: thiodicarb 0.9 LD (0.00016 gr), stages E-33 and E-34.

Read-outs that look alike come from different tables or passages of the source.

The term mortality denotes the percentage killed. Lower therefore signals more survivors. On to `Cc1c(COC(=O)[C@@H]2[C@H](/C=C(\Cl)C(F)(F)F)C2(C)C)cccc1-c1ccccc1` (racemic) [bifenthrin, 2-methyl biphenyl-3-ilmetil(2)-(1RS,3RS)-3-(2-chlorine 3,3,3-trifluoropropene)-2,2-dimethyl-cyclo-propane-carboxylate], for which the “Resistant to: (FINAL)” value in data set [1] is listed as 1 LD of thiodicarb; in data set [2] it was 1 DL of thiodicarb; in data set [3] it was 1 LD of thiodicarb; in data set [4] it was 1 DL of thiodicarb; in data set [5] it was 1.2 LD of thiodicarb. Moreover, the mortality is reported as 63% in data set [1] (bifenthrin 0.1 LD (0.00000006 gr), stages E-5 and E-6); 65% in data set [3] (bifenthrin 0.3 LD (0.00000018 gr), stages E-13 and E-14); 10% in data set [4] (setting [7]); 60% in data set [6] (bifenthrin 0.2 LD (0.00000012 gr), stages E-7 and E-8); 10% in data set [6] (setting [7]).
In the case of `CS/C(C)=N\OC(=O)N(C)SN(C)C(=O)O/N=C(\C)SC` [thiodicarb], the “Resistant to: (FINAL)” value is on record as 1 LD of thiodicarb in data set [1]; 1 DL of thiodicarb in data set [2]; 1 LD of thiodicarb in data set [3]; 1 DL of thiodicarb in data set [4]; 1.2 LD of thiodicarb in data set [5]. In addition, the mortality in data set [1] (setting [8]) was determined as 65%; in data set [2] (setting [8]) it was 60%; in data set [3] (thiodicarb 0.1 LD (0.0000175 gr), stage E-1, until day 68 of incubation), 82%; in data set [3] (setting [9]) it was 80%; in data set [4] (thiodicarb 0.1 LD (0.0000175 gr), stage E-1, until incubation day 72), 87%; in data set [4] (setting [9]), 84%. Besides, the mortality was 30% in data set [5] (setting [10]); 25% in data set [5] (thiodicarb 1 LD (0.00018 gr), stages E-35 and E-36); 14% in data set [5] (thiodicarb 1.2 LD (0.00022 gr), stages E-43 and E-44); 10% in data set [6] (setting [10]).
